One test has as its system Puccinia triticina. In words: Wheat brown rust (PUCCRT) disease control on wheat seedlings. The class given is in vivo. As to conditions: for PUCCRT 1DP disease control rating, HV activity at 100 ppm / PUCCRT 3DC disease control rating, HV activity at 100 ppm: high volume application; for PUCCRT 1DP disease control rating, HV activity / PUCCRT 3DC disease control rating, HV activity: HV application at 100 ppm.

The subject of a further test is Zymoseptoria tritici. The experiment in a line: Leaf blotch of wheat (SEPTTR) disease control on wheat seedlings. The class given is in vivo. Also on record: key to SEPTTR 1DP, HV activity at 100 ppm (% control rating) / SEPTTR 3DC, HV activity at 100 ppm (% control rating) / SEPTTR disease control, 1DP / SEPTTR disease control, 3DC / SEPTTR 1DP disease control rating, HV activity / SEPTTR 3DC disease control rating, HV activity / SEPTTR 3DC, LV activity at 125.1 g/H (% Control rating) / SEPTTR 1DP, LV activity at 125.1 g/H (% Control rating) / SEPTTR 1DP disease control rating, LV activity at 125.1 g/H / SEPTTR 3DC disease control rating, LV activity at 125.1 g/H / SEPTTR 3DC disease control rating, HV activity at 100 ppm / SEPTTR 1DP disease control rating, HV activity at 100 ppm / HV activity at 100 ppm SEPTTR 3DC (disease control rating) / HV activity at 100 ppm SEPTTR 1DP (disease control rating) / LV activity at 125.1 g/H SEPTTR 1DP (disease control rating) / LV activity at 125.1 g/H SEPTTR 3DC (disease control rating): A: > 80; B: ≤ 80; C: Not Tested; D: No Activity Observed in the Reported Assay. As to conditions: for SEPTTR 1DP disease control rating, HV activity at 100 ppm / SEPTTR 3DC disease control rating, HV activity at 100 ppm: high volume application; for SEPTTR 1DP disease control rating, HV activity / SEPTTR 3DC disease control rating, HV activity: HV application at 100 ppm.

Where [1] appears, read: 1 Day Protectant, wheat brown rust.
Where [2] appears, read: 3 Day Curative, wheat brown rust.
Setting [3] is: 1 Day Protectant, wheat leaf blotch.
The mark [4] stands for this setting: 3 Day Curative, wheat leaf blotch.
[5] abbreviates: low volume application, 125.1 g/H, 1 day protectant.
The mark [6] stands for this setting: low volume application, 125.1 g/H, 3 day curative.
Setting [7] is: low volume application, 125.1 g/H, 1 Day Protectant.
Setting [8] is: low volume application, 125.1 g/H, 3 Day Curative.

`COc1ccnc(C(=O)NC(C)C(=O)OC(C)C(Oc2ccc(Cl)cc2Cl)c2ccccc2)c1O` (centres unmarked) [Cmpd 817]: in the test on Puccinia triticina (1 day protectant), the “PUCCRT 1DP disease control rating, HV activity at 100 ppm” value was “A (> 80)”. In addition, the “PUCCRT 3DC disease control rating, HV activity at 100 ppm” value in the test on Puccinia triticina (3 day curative) is recorded as “A (> 80)”. Also, the “SEPTTR 1DP disease control rating, HV activity at 100 ppm” value in the test with Zymoseptoria tritici (1 day protectant) is reported as “A (> 80)”. Besides, the “SEPTTR 3DC disease control rating, HV activity at 100 ppm” value in the test on Zymoseptoria tritici (3 day curative) is recorded as “B (≤ 80)”.

For `CC[C@@H](CCOC)[C@@H](Oc1ccccc1)[C@H](C)OC(=O)[C@H](C)NC(=O)c1nccc(OC)c1O` [Cmpd 305], the “PUCCRT 1DP disease control rating, HV activity” value in the test on Puccinia triticina (setting [1]) is reported as “A (> 80)”. In addition, in the test with Puccinia triticina (setting [2]), the “PUCCRT 3DC disease control rating, HV activity” value is “A (> 80)”. In the test on Zymoseptoria tritici (setting [3]), the “SEPTTR 1DP disease control rating, HV activity” value is “A (> 80)”. Moreover, the “SEPTTR 3DC disease control rating, HV activity” value in the test on Zymoseptoria tritici (setting [4]) was “A (> 80)”.

Consider `CC[C@H](Cc1ccccc1)[C@@H](Oc1ccccc1)[C@H](C)OC(=O)[C@H](C)NC(=O)c1nccc(OC)c1O` [Cmpd 311], for which the “PUCCRT 1DP disease control rating, HV activity” value with Puccinia triticina (setting [1]) was “A (> 80)”. Further, the “PUCCRT 3DC disease control rating, HV activity” value with Puccinia triticina (setting [2]) is given as “A (> 80)”. Besides, the “SEPTTR 1DP disease control rating, HV activity” value in the test with Zymoseptoria tritici (setting [3]) was “A (> 80)”. The “SEPTTR 3DC disease control rating, HV activity” value in the test on Zymoseptoria tritici (setting [4]) was “B (≤ 80)”.

`C=CC[C@@H](Oc1ccc(Cl)cc1Cl)[C@H](C)OC(=O)[C@H](C)NC(=O)c1nccc(OC)c1OCOC(C)=O` [Cmpd 700]: the “PUCCRT 1DP disease control rating, LV activity at 125.1 g/H” value with Puccinia triticina (setting [5]) is listed as “A (> 80)”. For the same compound, in the test with Puccinia triticina (setting [6]), the “PUCCRT 3DC disease control rating, LV activity at 125.1 g/H” value is “A (> 80)”. Besides, the “SEPTTR 1DP disease control rating, LV activity at 125.1 g/H” value in the test with Zymoseptoria tritici (setting [5]) is reported as “D”. In addition, the “SEPTTR 3DC disease control rating, LV activity at 125.1 g/H” value with Zymoseptoria tritici (setting [6]) is on record as “B (≤ 80)”.

As to `COc1ccnc(C(=O)N[C@@H](C)C(=O)O[C@@H](C)[C@@H](COc2ccccc2)Oc2ccccc2)c1O` [Cmpd 315], in the test on Puccinia triticina (setting [1]), the “PUCCRT 1DP disease control rating, HV activity” value is “B (≤ 80)”. In addition, in the test with Puccinia triticina (setting [2]), the “PUCCRT 3DC disease control rating, HV activity” value was “A (> 80)”. For the same compound, the “SEPTTR 1DP disease control rating, HV activity” value in the test on Zymoseptoria tritici (setting [3]) is “B (≤ 80)”. Moreover, in the test with Zymoseptoria tritici (setting [4]), the “SEPTTR 3DC disease control rating, HV activity” value is given as “B (≤ 80)”.

For the compound `COc1ccnc(C(=O)N[C@@H](C)C(=O)O[C@@H](C)[C@H](Oc2ccc(Cl)cc2Cl)C2CCCC2)c1OCOC(C)=O` [Cmpd 551], the “PUCCRT 1DP, LV activity at 125.1 g/H (% Control rating)” value in the test on Puccinia triticina (setting [7]) is reported as “A (> 80)”. Further, the “PUCCRT 3DC, LV activity at 125.1 g/H (% Control rating)” value in the test with Puccinia triticina (setting [8]) is on record as “B (≤ 80)”. For the same compound, the “SEPTTR 1DP, LV activity at 125.1 g/H (% Control rating)” value in the test with Zymoseptoria tritici (setting [7]) is recorded as “A (> 80)”. In addition, in the test with Zymoseptoria tritici (setting [8]), the “SEPTTR 3DC, LV activity at 125.1 g/H (% Control rating)” value is recorded as “B (≤ 80)”.

On to `COc1ccnc(C(=O)N[C@@H](C)C(=O)O[C@@H](C)[C@H](Oc2ccccc2)C2CC2)c1OC(C)=O` [Cmpd 1064], for which the “LV activity at 125.1 g/H PUCCRT 1DP (disease control rating)” value in the test with Puccinia triticina (low volume application, 125.1 g/H, 1 Day Protectant, wheat brown rust) is recorded as “A (> 80)”. Moreover, in the test with Puccinia triticina (low volume application, 125.1 g/H, 3 Day Curative, wheat brown rust), the “LV activity at 125.1 g/H PUCCRT 3DC (disease control rating)” value is “A (> 80)”. Besides, the “LV activity at 125.1 g/H SEPTTR 1DP (disease control rating)” value with Zymoseptoria tritici (low volume application, 125.1 g/H, 1 Day Protectant, wheat leaf blotch) is recorded as “B (≤ 80)”. In the test with Zymoseptoria tritici (low volume application, 125.1 g/H, 3 Day Curative, wheat leaf blotch), the “LV activity at 125.1 g/H SEPTTR 3DC (disease control rating)” value was “A (> 80)”.

Regarding `C=CC[C@@H](Oc1ccc(F)cc1F)[C@H](C)OC(=O)[C@H](C)NC(=O)c1nccc(OC)c1O` [Cmpd 1023], the “PUCCRT 1DP disease control rating, HV activity at 100 ppm” value in the test on Puccinia triticina (1 day protectant) was “A (> 80)”. For the same compound, in the test on Puccinia triticina (3 day curative), the “PUCCRT 3DC disease control rating, HV activity at 100 ppm” value was “A (> 80)”. The “SEPTTR 1DP disease control rating, HV activity at 100 ppm” value in the test with Zymoseptoria tritici (1 day protectant) is given as “D”. The “SEPTTR 3DC disease control rating, HV activity at 100 ppm” value in the test with Zymoseptoria tritici (3 day curative) is “B (≤ 80)”.

For the origin of these results see patent US20180000085A1, “USE OF PICOLINAMIDE COMPOUNDS WITH FUNGICIDAL ACTIVITY” (DOW AGROSCIENCES LLC, priority 2014, published 2018).
